BindingDB's records for patent US20240190893 (Janssen Pharmaceutica, 2024)
“And” between values parts separate entries of the source, which are not always exact repeats. Identical values can stand only once.

Target: Induced myeloid leukemia cell differentiation protein Mcl-1 (Homo sapiens, UniProt Q07820)
Test: Terbium labeled Myeloid Cell Leukemia 1 (Mcl-1) homogeneous time-resolved fluorescence (HTRF) binding assay
From the text: This assay evaluated inhibition of the BH3 domain: Mcl-1 interaction by measuring the displacement of Cy5-labeled BIM BH3 peptide (H2N (C/Cy5Mal) WIAQELRRIGDEFN-OH) in the HTRF assay format.

Induced myeloid leukemia cell differentiation protein Mcl-1, sequence (Q07820 whole entry): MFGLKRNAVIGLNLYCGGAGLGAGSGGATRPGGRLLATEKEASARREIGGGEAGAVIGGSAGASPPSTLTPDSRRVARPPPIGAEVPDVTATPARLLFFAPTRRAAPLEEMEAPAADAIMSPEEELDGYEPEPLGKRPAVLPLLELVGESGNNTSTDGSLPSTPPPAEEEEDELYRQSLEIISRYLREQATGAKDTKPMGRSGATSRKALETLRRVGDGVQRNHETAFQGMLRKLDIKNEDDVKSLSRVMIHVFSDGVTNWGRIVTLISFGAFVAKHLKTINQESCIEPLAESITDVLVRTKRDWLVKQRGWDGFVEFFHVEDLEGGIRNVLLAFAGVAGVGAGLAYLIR

Cc1nn(C)c(C)c1-c1c(Cl)ccc2c3c(C(=O)O)n(c12)CCCSCc1cc(n(C)n1)CSc1cc(c2ccccc2c1)OCCC3 [US20240190893, Compound 19]
Ki: 1.44 nM and 0.249 nM
